Assay results: US10457654B2 (GENENTECH, INC., priority 2017, dated 2019)
pIC50: −log10 of the molar value. Counter-ions that a name gives are not always drawn.

How the values were obtained:
[1] = biological target: T1, hNav1.7 (Homo sapiens (Human), UniProt Q15858); assay: Tritiated compound binding to membranes from cells expressing hNav1.7 and the β1 subunit, competitive binding (LBA, Ex. 243A); details: 100 pM [3H]compound, 18 h, room temperature; read-out: Nav1.7 (LBA) (Ex. 243A)
Description: Tritiated Compound Binding to Membranes Isolated from Cells that Heterologously Express hNav1.7 and the β1 Subunit
Preparation of membranes containing recombinantly expressed sodium channels: Frozen recombinant cell pellets were thawed on ice and diluted to 4 times the cell pellet weight with ice cold 50 mM Tris HCl, pH 7.4 buffer. The cell suspensions were homogenized on ice using a motorized glass dounce homogeniser. Homogenates were further diluted 8.4 times with ice cold 50 mM Tris HCl, pH 7.4 buffer and then centrifuged at 200×g at 4° C. for 15 min. The supernatants were collected and centrifuged at 10000×g at 4° C. for 50 min. […] The homogenized membranes were then processed through a syringe equipped with a 26 gauge needle. Protein concentrations were determined by Bradford Assay and the membranes were stored at −80° C.
Radioligand Binding Studies: Saturation experiments. A competitive NaV1.7 inhibitor having a methyl group was tritiated. Three tritiums were incorporated in place of methyl hydrogens to generate [^3H]compound. Binding of this radioligand was performed in 5 mL borosilicate glass test tubes at room temperature. […] Non-specific binding was determined in the presence of 1 μM unlabeled compound. After 18h, the reactants were filtered through GF/C glass fiber filters presoaked in 0.5% w/v polyethylene imine. […] [^3H]compound bound to filters was quantified by liquid scintillation counting.
Competitive binding experiments: Binding reactions were performed in 96-well polypropylene plates at room temperature for 18h. In 360 μL, membranes were incubated with 100 pM [^3H]compound and increasing concentrations of Test Compound. Non-specific binding was defined in the presence of 1 μM unlabeled compound. Reactions were transferred and filtered through 96-well glass fiber/C filter plates presoaked with 0.5% polyethylene imine. The filtered reactions were washed 5 times with 200 μL ice cold buffer containing 0.25% BSA. Bound radioactivity was determined by liquid scintillation counting.
Data Analysis: For saturation experiments, non-specific binding was subtracted from total binding to provide specific binding and these values were recalculated in terms of pmol ligand bound per mg protein. Saturation curves were constructed and dissociation constants were calculated using the single site ligand binding model: Beq=(Bmax*X)/(X+Kd), where Beq is the amount of ligand bound at equilibrium, Bmax is the maximum receptor density, Kd is the dissociation constant for the ligand, and X is the free ligand concentration. For competition studies percent inhibition was determined and IC50 values were calculated using a 4 parameter logistic model (% inhibition=(A+((B−A)/(1+((x/C)^D)))) using XLfit, where A and B are the maximal and minimum inhibition respectively, C is the IC50 concentration and D is the (Hill) slope.
Target sequence in this assay (Q15858 whole entry, looked up): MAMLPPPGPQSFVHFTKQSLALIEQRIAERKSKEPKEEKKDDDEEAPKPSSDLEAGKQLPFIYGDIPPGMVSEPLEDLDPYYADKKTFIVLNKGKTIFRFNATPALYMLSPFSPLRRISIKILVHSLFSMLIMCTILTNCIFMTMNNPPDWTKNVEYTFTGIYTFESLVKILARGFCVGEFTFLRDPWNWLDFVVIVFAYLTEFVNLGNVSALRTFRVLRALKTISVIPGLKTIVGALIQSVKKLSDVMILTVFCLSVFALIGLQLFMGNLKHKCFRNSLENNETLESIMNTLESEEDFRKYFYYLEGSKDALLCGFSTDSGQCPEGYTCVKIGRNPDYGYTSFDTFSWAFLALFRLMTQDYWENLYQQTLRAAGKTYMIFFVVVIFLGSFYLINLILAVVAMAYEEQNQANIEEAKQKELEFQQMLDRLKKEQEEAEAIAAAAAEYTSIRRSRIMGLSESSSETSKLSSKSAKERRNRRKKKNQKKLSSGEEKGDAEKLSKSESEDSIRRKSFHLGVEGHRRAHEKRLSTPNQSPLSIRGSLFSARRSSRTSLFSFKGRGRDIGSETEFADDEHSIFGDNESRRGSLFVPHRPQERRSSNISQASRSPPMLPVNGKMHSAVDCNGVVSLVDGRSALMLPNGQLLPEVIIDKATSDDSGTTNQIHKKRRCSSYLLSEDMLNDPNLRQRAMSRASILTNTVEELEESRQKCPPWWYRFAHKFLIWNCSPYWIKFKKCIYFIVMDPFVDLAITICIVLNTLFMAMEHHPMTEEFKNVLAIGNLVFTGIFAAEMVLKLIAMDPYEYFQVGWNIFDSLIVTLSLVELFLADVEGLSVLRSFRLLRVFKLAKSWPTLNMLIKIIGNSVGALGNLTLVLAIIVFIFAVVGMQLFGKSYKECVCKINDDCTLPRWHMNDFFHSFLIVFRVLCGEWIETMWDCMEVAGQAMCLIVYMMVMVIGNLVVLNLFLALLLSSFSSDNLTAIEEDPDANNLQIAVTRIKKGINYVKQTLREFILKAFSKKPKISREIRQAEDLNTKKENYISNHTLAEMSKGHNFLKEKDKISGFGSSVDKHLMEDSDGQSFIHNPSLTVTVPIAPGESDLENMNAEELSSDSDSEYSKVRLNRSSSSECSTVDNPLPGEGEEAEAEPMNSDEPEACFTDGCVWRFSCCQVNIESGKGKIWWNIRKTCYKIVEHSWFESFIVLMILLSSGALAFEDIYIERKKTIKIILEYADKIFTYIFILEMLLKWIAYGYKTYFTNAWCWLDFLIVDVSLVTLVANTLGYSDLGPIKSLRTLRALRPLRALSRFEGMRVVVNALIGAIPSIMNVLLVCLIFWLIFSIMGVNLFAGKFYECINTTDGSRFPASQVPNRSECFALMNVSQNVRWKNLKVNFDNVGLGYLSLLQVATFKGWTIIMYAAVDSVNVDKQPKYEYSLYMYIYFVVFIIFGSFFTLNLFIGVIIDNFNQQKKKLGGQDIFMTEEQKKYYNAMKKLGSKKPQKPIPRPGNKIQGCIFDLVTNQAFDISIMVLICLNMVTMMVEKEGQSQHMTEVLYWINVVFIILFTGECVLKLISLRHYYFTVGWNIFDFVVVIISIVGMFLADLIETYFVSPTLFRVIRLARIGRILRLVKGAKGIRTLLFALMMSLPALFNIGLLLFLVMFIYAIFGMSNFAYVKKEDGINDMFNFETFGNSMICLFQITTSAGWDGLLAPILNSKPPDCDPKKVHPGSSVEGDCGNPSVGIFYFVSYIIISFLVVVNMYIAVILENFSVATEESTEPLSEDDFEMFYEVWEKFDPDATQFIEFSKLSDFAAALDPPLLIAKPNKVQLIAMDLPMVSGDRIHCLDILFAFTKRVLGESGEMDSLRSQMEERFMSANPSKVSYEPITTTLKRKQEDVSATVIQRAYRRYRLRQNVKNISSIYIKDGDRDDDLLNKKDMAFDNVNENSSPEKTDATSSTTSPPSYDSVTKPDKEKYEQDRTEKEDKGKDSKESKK
Target sequence in this assay (Q07699 whole entry partner, looked up): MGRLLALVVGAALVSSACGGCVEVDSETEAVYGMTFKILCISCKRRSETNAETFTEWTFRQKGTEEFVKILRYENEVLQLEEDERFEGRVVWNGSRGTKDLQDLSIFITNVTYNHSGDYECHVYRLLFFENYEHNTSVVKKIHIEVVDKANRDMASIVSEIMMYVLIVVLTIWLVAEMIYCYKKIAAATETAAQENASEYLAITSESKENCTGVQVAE

[2] = biological target: T1, hNav1.7; assay: Tritiated compound binding to membranes from cells expressing hNav1.7 and the β1 subunit, modified protocol (LBA, Ex. 243B); details: 300 pM [3H]compound, room temperature, read-out: Nav1.7 LBA (Ex. 243B) IC50
Target sequence in this assay (Q15858 whole entry, looked up): as the sequence (Q15858 whole entry, looked up) above
Target sequence in this assay (Q07699 whole entry partner, looked up): as the sequence (Q07699 whole entry partner, looked up) above

[3] = biological target: T1, hNav1.7; assay: Patch voltage clamp electrophysiology assay (EP), Syncropatch 384PE, CHO cells expressing Nav1.7; type: cell-based; details: holding potential -50 mV; […] compound incubation; read-out: EP_SP hNav1.7 (Ex. 243B) IC50
In short: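 Automated whole-cell patch clamp on CHO cells stably expressing human Nav1.7, CsCl/EGTA internal and NMDG/80 mM Na+ external (pH 7.4). From −50 mV holding, −10 mV step, 20 ms recovery at −150 mV, then second −10 mV pulse where block is measured; inhibition after 7.5 min compound incubation.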
Target sequence in this assay (Q15858 other isoform, or with tags, fused parts or gaps): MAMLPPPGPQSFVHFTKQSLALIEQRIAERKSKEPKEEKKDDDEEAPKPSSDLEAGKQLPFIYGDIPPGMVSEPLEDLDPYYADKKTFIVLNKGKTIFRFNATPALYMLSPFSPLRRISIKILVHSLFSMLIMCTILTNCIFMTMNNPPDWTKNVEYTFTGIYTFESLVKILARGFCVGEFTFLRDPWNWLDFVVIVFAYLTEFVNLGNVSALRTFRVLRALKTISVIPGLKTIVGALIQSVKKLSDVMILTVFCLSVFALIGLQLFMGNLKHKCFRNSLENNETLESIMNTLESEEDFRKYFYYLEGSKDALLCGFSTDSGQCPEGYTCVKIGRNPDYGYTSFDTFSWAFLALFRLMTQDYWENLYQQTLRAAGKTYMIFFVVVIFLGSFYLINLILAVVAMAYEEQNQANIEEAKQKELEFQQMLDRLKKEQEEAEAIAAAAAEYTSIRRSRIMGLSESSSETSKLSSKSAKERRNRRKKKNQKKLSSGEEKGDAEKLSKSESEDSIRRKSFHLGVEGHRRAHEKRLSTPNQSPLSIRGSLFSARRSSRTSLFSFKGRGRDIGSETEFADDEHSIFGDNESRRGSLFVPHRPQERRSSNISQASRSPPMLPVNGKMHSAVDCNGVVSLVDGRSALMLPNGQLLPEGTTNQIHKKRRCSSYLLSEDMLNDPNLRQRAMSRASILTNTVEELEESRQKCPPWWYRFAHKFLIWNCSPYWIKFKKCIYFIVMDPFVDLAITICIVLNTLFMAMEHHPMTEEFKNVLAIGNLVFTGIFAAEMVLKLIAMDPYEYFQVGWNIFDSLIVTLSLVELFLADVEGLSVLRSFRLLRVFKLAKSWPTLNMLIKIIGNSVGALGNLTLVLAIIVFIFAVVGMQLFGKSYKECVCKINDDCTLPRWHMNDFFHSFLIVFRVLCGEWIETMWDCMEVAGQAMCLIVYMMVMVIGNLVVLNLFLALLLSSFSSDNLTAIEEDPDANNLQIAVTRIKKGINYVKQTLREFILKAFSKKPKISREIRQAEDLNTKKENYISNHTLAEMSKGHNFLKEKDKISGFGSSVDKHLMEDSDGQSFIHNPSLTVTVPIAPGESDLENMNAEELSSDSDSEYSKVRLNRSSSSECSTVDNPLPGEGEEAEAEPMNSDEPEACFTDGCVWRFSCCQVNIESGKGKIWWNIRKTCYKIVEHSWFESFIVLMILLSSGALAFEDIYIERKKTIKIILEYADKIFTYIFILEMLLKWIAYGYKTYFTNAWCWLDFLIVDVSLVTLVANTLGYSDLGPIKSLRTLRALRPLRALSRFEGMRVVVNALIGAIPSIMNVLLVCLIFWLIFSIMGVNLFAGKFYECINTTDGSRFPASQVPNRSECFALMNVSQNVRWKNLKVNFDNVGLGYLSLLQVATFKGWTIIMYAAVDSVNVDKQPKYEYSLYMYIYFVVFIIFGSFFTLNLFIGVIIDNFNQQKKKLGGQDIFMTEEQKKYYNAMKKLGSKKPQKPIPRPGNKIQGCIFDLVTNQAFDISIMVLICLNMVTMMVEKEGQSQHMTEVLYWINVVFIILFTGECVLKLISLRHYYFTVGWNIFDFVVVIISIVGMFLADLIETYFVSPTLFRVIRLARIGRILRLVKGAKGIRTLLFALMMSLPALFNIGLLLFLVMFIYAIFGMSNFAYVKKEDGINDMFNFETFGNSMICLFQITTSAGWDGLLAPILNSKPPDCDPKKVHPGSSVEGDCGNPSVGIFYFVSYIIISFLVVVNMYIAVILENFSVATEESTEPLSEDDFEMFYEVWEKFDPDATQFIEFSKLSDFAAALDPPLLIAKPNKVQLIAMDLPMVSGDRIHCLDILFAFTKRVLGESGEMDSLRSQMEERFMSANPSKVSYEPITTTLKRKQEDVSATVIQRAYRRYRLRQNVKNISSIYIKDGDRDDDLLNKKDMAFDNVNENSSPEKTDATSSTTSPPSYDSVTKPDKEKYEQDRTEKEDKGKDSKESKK

Row | Compound | pIC50 [1] | pIC50 [2] | pIC50 [3]
1 | 5-chloro-4-(((1 S,2S)-2-(ethylamino)cyclohexyl)amino)-2-fluoro-N-(pyrimidin-4-yl)benzenesulfonamide [Example 22] | 7.02 | – | –
2 | N[C@H]1CCCC[C@@H]1Nc1cc(F)c(S(=O)(=O)Nc2nccs2)cc1Cl [Example 1, 4-(((1S,2S)-2-aminocyclohexyl)amino)-5-chloro-2-fluoro-N-(thiazol-2-yl)benzenesulfonamide] | 6.71 | – | –
3 | CN(C)[C@H]1CCCC[C@@H]1Nc1cc(F)c(S(=O)(=O)Nc2nccs2)cc1Cl [Example 2, 5-chloro-4-(((1S,2S)-2-(dimethylamino)cyclohexyl)amino)-2-fluoro-N-(thiazol-2-yl)benzenesulfonamide] | 7.42 | – | –
4 | CN[C@H]1CCCC[C@@H]1Nc1cc(F)c(S(=O)(=O)Nc2nccs2)cc1Cl [Example 3, 5-chloro-2-fluoro-4-(((1S,2S)-2-(methylamino)cyclohexyl)amino)-N-(thiazol-2-yl)benzenesulfonamide 2,2,2-trifluoroacetate] | 7.80 | – | –
5 | CCN[C@H]1CCCC[C@@H]1Nc1cc(F)c(S(=O)(=O)Nc2nccs2)cc1Cl [Example 4, 2,2,2-trifluoroacetate] | 8.38 | – | –
6 | O=S(=O)(Nc1nccs1)c1cc(Cl)c(N[C@H]2CCCC[C@@H]2NCc2ccccc2)cc1F [Example 5, 4-(((1S,2S)-2-(benzylamino)cyclohexyl)amino)-5-chloro-2-fluoro-N-(thiazol-2-yl)benzenesulfonamide 2,2,2-trifluoroacetate] | 6.37 | – | –
7 | CCN(Cc1ccccc1)[C@H]1CCCC[C@@H]1Nc1cc(F)c(S(=O)(=O)Nc2nccs2)cc1Cl [Example 6, 4-(((1S,2S)-2-(benzyl(ethyl)amino)cyclohexyl)amino)-5-chloro-2-fluoro-N-(thiazol-2-yl)benzenesulfonamide] | 6.00 | – | –
8 | CN(C)[C@H]1CCCC[C@@H]1Oc1cc(F)c(S(=O)(=O)Nc2nccs2)cc1Cl [Example 7, 5-chloro-4-(((1S,2S)-2-(dimethylamino)cyclohexyl)oxy)-2-fluoro-N-(thiazol-2-yl)benzenesulfonamide] | 7.05 | – | –
9 | CN(C)[C@H]1C[C@H](c2cccc(C(F)(F)F)c2)CC[C@@H]1Nc1cc(F)c(S(=O)(=O)Nc2ccon2)cc1Cl [Example 229, 5-chloro-4-(((1S,2S,4R)-2-(dimethylamino)-4-(3-(trifluoromethyl)phenyl)cyclohexyl)amino)-2-fluoro-N-(isoxazol-3-yl)benzenesulfonamide] | – | 7.26 | 8.08
10 | CN(C)[C@H]1C[C@@H](c2cccc(C(F)(F)F)c2)CC[C@@H]1Nc1cc(F)c(S(=O)(=O)Nc2ccncn2)cc1C1CC1 [Example 230, 5-Cyclopropyl-4-(((1S,2S,4S)-2-(dimethylamino)-4-(3-(trifluormethyl)phenyl)cyclohexyl)amino)-2-fluoro-N-(pyrimidin-4-yl)benzenesulfonamide formate] | – | 9.20 | 8.82
11 | CN(C)[C@H]1C[C@@H](c2cccc(Cl)c2)CC[C@@H]1Nc1cc(F)c(S(=O)(=O)Nc2ccncn2)cc1Cl [Example 231, 5-Chloro-4-(((1S,2S,4S)-4-(3-chlorophenyl)-2-(dimethylamino)cyclohexyl)amino)-2-fluoro-N-(pyrimidin-4-yl)benzenesulfonamide formate] | – | 8.65 | 9.03
12 | CN(C)[C@H]1C[C@@H](c2ccccc2)CC[C@@H]1Nc1cc(F)c(S(=O)(=O)Nc2ccncn2)cc1Cl [Example 232, 5-chloro-4-(((1S,2S,4S)-2-(dimethyamino)-4-phenylcyclohexyl)amino)-2-fluoro-N-(pyrimidin-4-yl)benzenesulfonamide formate] | – | 7.32 | 7.98
13 | CN(C)[C@H]1CN(c2cccc(C(F)(F)F)c2)CC[C@@H]1Nc1cc(F)c(S(=O)(=O)Nc2ccncn2)cc1Cl [Example 233, 5-Chloro-4-(((3S,4S)-3-(dimethylamino)-1-(3-(trifluoromethyl)phenyl)piperidin-4-yl)amino)-2-fluoro-N-(pyrimidin-4-yl)benzenesulfonamide] | – | 8.01 | 8.77
14 | CN(C)[C@@H]1CN(c2cccc(C(F)(F)F)c2)CC[C@H]1Nc1cc(F)c(S(=O)(=O)Nc2ccncn2)cc1Cl [Example 234, 5-Chloro-4-(((3R,4R)-3-(dimethylamino)-1-(3-(trifluoromethyl)phenyl)piperidin-4-yl)amino)-2-fluoro-N-(pyrimidin-4-yl)benzenesulfonamide formate] | – | 5.70 | 6.88
15 | C[N+](C)([O-])[C@H]1C[C@@H](c2cccc(C(F)(F)F)c2)CC[C@@H]1Nc1cc(F)c(S(=O)(=O)Nc2ccncn2)cc1Cl [Example 235, (1S,2S,5S)-2-((2-Chloro-5-fluoro-4-(N-(pyrimidin-4-yl)sulfamoyl)phenyl)amino)-N,N-dimethyl-5-(3-(trifluoromethyl)phenyl)cyclohexanamine oxide] | – | 7.93 | 8.09
16 | CN(C)[C@H]1C[C@@H](c2cccc(C(F)(F)F)c2)CC[C@@H]1Nc1cc(F)c(S(=O)(=O)Nc2ccncn2)cc1C1CCC1 [Example 236, 5-cyclobutyl-4-(((1S,2S,4S)-2-(dimethylamino)-4-(3-(trifluoromethyl)phenyl)cyclohexyl)amino)-2-fluoro-N-(pyrimidin-4-yl)benzenesulfonamide] | – | 9.23 | 8.80
17 | CN(C)[C@H]1C[C@@H](c2cccc(C(F)(F)F)c2)CC[C@@H]1Nc1ccc(S(=O)(=O)Nc2ccncn2)c(F)c1 [Example 237, 4-(((1S,2S,4S)-2-(Dimethylamino)-4-(3-(trifluoromethyl)phenyl)cyclohexyl)amino)-2-fluoro-N-(pyrimidin-4-yl)benzenesulfonamide formate] | – | 8.61 | 8.97
18 | CN(C)[C@H]1C[C@@H](c2cccc(C(F)(F)F)c2)CC[C@@H]1Oc1cc(F)c(S(=O)(=O)Nc2ccncn2)cc1Cl [Example 238, 5-chloro-4-(((1S,2S,4S)-2-(dimethylamino)-4-(3-(trifluoromethyl)phenyl)cyclohexyl)oxy)-2-fluoro-N-(pyrimidin-4-yl)benzenesulfonamide] | – | 8.26 | 8.93
19 | CN(C)[C@H]1C[C@@H](c2cccc(C(F)(F)F)c2)CC[C@@H]1Nc1cc(F)c(S(=O)(=O)Nc2ccncn2)cc1O [Example 240, 4-(((1S,2S,4S)-2-(Dimethylamino)-4-(3-(trifluoromethyl)phenyl)cyclohexyl)amino)-2-fluoro-5-hydroxy-N-(pyrimidin-4-yl)benzenesulfonamide formate] | – | 7.82 | 8.54
20 | COc1cc(S(=O)(=O)Nc2ccncn2)c(F)cc1N[C@H]1CC[C@H](c2cccc(C(F)(F)F)c2)C[C@@H]1N(C)C [Example 241, 4-(((1S,2S,4S)-2-(Dimethylamino)-4-(3-(trifluoromethyl)phenyl)cyclohexyl)amino)-2-fluoro-5-methoxy-N-(pyrimidin-4-yl)benzenesulfonamide formate] | – | 8.43 | 8.83
21 | O=S(=O)(Nc1ccncn1)c1cc(Cl)c(N[C@H]2CC[C@H](c3cccc(C(F)(F)F)c3)C[C@@H]2N2CCCC2)cc1F [Example 242, 5-chloro-2-fluoro-N-(pyrimidin-4-yl)-4-(((1S,2S,4S)-2-(pyrrolidin-1-yl)-4-(3 (trifluoromethyl)phenyl)cyclohexyl)amino)benzenesulfonamide] | – | 9.37 | 9.74
